Assay results taken from patent US20230295118A1 (EnhancedBio Inc., priority 2022, published 2023).

Experiments:
Assay type in all cases: cell-based
[1] = biological target: T1, CDK6 (Homo sapiens, UniProt Q00534); assay: CDK6 degradation (DC50, Dmax)
T1 construct: endogenous in cells

[2] = test system: mantle cell lymphoma cell (Mino or JeKo-1); assay: Antiproliferative effect, MTS cell viability assay; conditions: 72 h; for IC50: mantle cell lymphoma cell (Mino or JeKo-1), MTS assay, read-out: IC50 (anti-proliferation); for inhibition of cell proliferation of Mino cells: 0-1 μM, result in words
Method in brief: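 Mino cells treated with compounds at 0, 0.0001, 0.001, 0.01, 0.1, 1 μM for 72 h; palbociclib and abemaciclib as positive controls. Viability by MTS, formazan absorbance read at 490 nm.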

[3] = biological target: T2, CDK4 (Homo sapiens, UniProt P11802); assay: CDK4 degradation (DC50, Dmax)
T2 construct: endogenous in cells
T2 sequence (P11802 whole entry): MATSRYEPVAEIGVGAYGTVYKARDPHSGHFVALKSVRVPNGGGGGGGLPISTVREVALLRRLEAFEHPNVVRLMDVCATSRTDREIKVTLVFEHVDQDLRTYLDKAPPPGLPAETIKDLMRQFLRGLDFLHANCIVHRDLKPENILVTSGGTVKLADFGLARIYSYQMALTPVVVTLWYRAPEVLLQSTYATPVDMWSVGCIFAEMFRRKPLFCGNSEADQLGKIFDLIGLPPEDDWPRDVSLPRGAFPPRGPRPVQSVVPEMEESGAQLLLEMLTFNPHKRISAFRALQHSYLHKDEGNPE

T1 sequence (Q00534 whole entry): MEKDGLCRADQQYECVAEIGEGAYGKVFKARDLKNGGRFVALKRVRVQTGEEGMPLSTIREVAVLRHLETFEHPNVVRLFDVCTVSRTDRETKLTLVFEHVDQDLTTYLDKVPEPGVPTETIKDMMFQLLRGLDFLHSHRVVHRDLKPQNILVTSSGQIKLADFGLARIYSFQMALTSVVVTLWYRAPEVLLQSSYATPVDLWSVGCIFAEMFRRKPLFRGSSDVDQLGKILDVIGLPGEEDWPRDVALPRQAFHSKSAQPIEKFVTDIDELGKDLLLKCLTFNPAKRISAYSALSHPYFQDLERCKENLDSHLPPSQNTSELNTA

SMILES	DC50 [1] [nM]	Dmax [1] [%]	IC50 [2] [nM]	DC50 [3] [nM]	Dmax [3] [%]	inhibition of cell proliferation of Mino cells [2]
CC(=O)c1c(C)c2cnc(Nc3ccc(N4CCN(C(=O)N5CCC(CC6CCN(c7ccc8c(c7)CN(C7CCC(=O)NC7=O)C8=O)CC6)CC5)CC4)cn3)nc2n(C2CCCC2)c1=O (centres unmarked) [Compound 14, 3-(5-(4-((1-(4-(6-((6-acetyl-8-cyclopentyl-5-methyl-7-oxo-7,8-dihydropyrido[2,3-d]pyrimidin-2-yl)amino)pyridin-3-yl)piperazine-1-carbonyl)piperidin-4-yl)methyl)piperidin-1-yl)-1-oxoisoindolin-2-yl)piperidine-2,6-dione]	> 200	> 60	50 to 200	> 200	> 50	
CC(=O)c1c(C)c2cnc(Nc3ccc(N4CCN(C(=O)N5CCC(C6CCN(c7ccc8c(c7)CN(C7CCC(=O)NC7=O)C8=O)CC6)CC5)CC4)cn3)nc2n(C2CCCC2)c1=O (centres unmarked) [Compound 10, 3-(5-(1′-(4-(6-((6-acetyl-8-cyclopentyl-5-methyl-7-oxo-7,8-dihydropyrido[2,3-d]pyrimidin-2-yl)amino)pyridin-3-yl)piperazine-1-carbonyl)-[4,4′-bipiperidin]-1-yl)-1-oxoisoindolin-2-yl)piperidine-2,6-dione]	> 200	> 50	> 200	> 200	> 50	
CC(=O)c1c(C)c2cnc(Nc3ccc(N4CCN(CCC5CCN(c6ccc7c(c6)C(=O)N(C6CCC(=O)NC6=O)C7=O)CC5)CC4)cn3)nc2n(C2CCCC2)c1=O (centres unmarked) [Compound 69, 5-(4-(2-(4-(6-((6-acetyl-8-cyclopentyl-5-methyl-7-oxo-7,8-dihydropyrido[2,3-d]pyrimidin-2-yl)amino)pyridin-3-yl)piperazin-1-yl)ethyl)piperidin-1-yl)-2-(2,6-dioxopiperidin-3-yl)isoindoline-1,3-dione]	50 to 200	> 60	50 to 200	50 to 200	> 60	
CC(=O)c1c(C)c2cnc(Nc3ccc(N4CCN(C(=O)N5CCN(C6CCN(c7ccc8c(c7)CN(C7CCC(=O)NC7=O)C8=O)CC6)CC5)CC4)cn3)nc2n(C2CCCC2)c1=O (centres unmarked) [Compound 6, 3-(5-(4-(4-(4-(6-((6-acetyl-8-cyclopentyl-5-methyl-7-oxo-7,8-dihydropyrido[2,3-d]pyrimidin-2-yl)amino)pyridin-3-yl)piperazine-1-carbonyl)piperazin-1-yl)piperidin-1-yl)-1-oxoisoindolin-2-yl)piperidine-2,6-dione]	> 200	> 50	> 200	> 200	> 50	
Cc1nc2c(F)cc(-c3nc(Nc4ccc(CC5CCN(C(=O)C6CCN(c7ccc8c(c7)CN(C7CCC(=O)NC7=O)C8=O)CC6)CC5)cn4)ncc3F)cc2n1C(C)C (centres unmarked) [Compound 162, 3-(5-(4-(4-((6-((5-fluoro-4-(4-fluoro-1-isopropyl-2-methyl-1H-benzo[d]imnidazol-6-yl)pyrimidin-2-yl)amino)pyridin-3-yl)methyl)piperidine-1-carbonyl)piperidin-1-yl)-1-oxoisoindolin-2-yl)piperidine-2,6-dione]	> 200	> 60	50 to 200	50 to 200	> 60	
CC(=O)c1c(C)c2cnc(Nc3ccc(N4CCN(C(=O)N5CCN(c6ccc7c(c6)CN(C6CCC(=O)NC6=O)C7=O)CC5)CC4)cn3)nc2n(C2CCCC2)c1=O (centres unmarked) [Compound 2, 3-(5-(4-(4-(6-((6-acetyl-8-cyclopentyl-5-methyl-7-oxo-7,8-dihydropyrido[2,3-d]pyrimidin-2-yl)amino)pyridin-3-yl)piperazine-1-carbonyl)piperazin-1-yl)-1-oxoisoindolin-2-yl)piperidine-2,6-dione]	> 200	> 60	50 to 200	> 200	> 60	

Further lines, with some results ahead:

DC50 [1] [nM]	Dmax [1] [%]	IC50 [2] [nM]	DC50 [3] [nM]	Dmax [3] [%]	SMILES	inhibition of cell proliferation of Mino cells [2]
< 50	> 80	< 50	< 50	> 80	Cc1nc2c(F)cc(-c3nc(Nc4ccc(CN5CCN(CC6CN(c7ccc(N8CCC(=O)NC8=O)cc7)C6)CC5)cn4)ncc3F)cc2n1C(C)C [Compound 106, 1-(4-(3-((4-((6-((5-fluoro-4-(4-fluoro-1-isopropyl-2-methyl-1H-benzo[d]imidazol-6-yl)pyrimidin-2-yl)amino)pyridin-3-yl)methyl)piperazin-1-yl)methyl)azetidin-1-yl)phenyl) dihydropyrimidine-2,4(1H,3H)-dione]	
50 to 200	> 80	< 50	50 to 200	> 80	CC(=O)c1c(C)c2cnc(Nc3ccc(N4CCN(C5CCN(C(=O)Nc6ccc7c(c6)C(=O)N(C6CCC(=O)NC6=O)C7=O)CC5)CC4)cn3)nc2n(C2CCCC2)c1=O (centres unmarked) [Compound 39, 4-(4-(6-((6-acetyl-8-cyclopentyl-5-methyl-7-oxo-7,8-dihydropyrido[2,3-d]pyrimidin-2-yl)amino)pyridin-3-yl)piperazin-1-yl)-N-(2-(2,6-dioxopiperidin-3-yl)-1,3-dioxoisoindolin-5-yl)piperidine-1-carboxamide]	
< 50	> 80	< 50	50 to 200	> 80	Cc1nc2c(F)cc(-c3nc(Nc4ccc(CN5CCN(CCNc6cccc7c6C(=O)N(C6CCC(=O)NC6=O)C7=O)CC5)cn4)ncc3F)cc2n1C(C)C (centres unmarked) [Compound 92, 2-(2,6-dioxopiperidin-3-yl)-4-((2-(4-((6-((5-fluoro-4-(4-fluoro-1 isopropyl-2-methyl-1H-benzo[d]imidazol-6-yl)pyrimidin-2-yl)amino)pyridin-3-yl)methyl)piperazin-1-yl)ethyl)amino) isoindoline-1,3-dione]	dose-dependent inhibition of cell proliferation
< 50	> 80	< 50	< 50	> 80	Cc1nc2c(F)cc(-c3nc(Nc4ccc(CN5CCN(CC6CN(c7ccc(NC8CCC(=O)NC8=O)cc7)C6)CC5)cn4)ncc3F)cc2n1C(C)C (centres unmarked) [Compound 134]	
< 50	> 80	< 50	< 50	> 80	CC(=O)c1c(C)c2cnc(Nc3ccc(N4CCN(CC5CCN(c6ccc7c(c6)C(=O)N(C6CCC(=O)NC6=O)C7=O)CC5)CC4)cn3)nc2n(C2CCCC2)c1=O (centres unmarked) [Compound 65, 5-(4-((4-(6-((6-acetyl-8-cyclopentyl-5-methyl-7-oxo-7,8-dihydropyrido[2,3-d]pyrimidin-2-yl)amino)pyridin-3-yl)piperazin-1-yl)methyl)piperidin-1-yl)-2-(2,6-dioxopiperidin-3-yl) isoindoline-1,3-dione]	dose-dependent inhibition of cell proliferation
< 50	> 80	< 50	< 50	> 80	Cc1nc2c(F)cc(-c3nc(Nc4ccc(CN5CCN(CC6CCCN(c7ccc(N8CCC(=O)NC8=O)cc7)C6)CC5)cn4)ncc3F)cc2n1C(C)C (centres unmarked) [Compound 110, 1-(4-(3-((4-((6-((5-fluoro-4-(4-fluoro-1-isopropyl-2-methyl-1H-benzo[d]imidazol-6-yl)pyrimidin-2-yl)amino)pyridin-3-yl)methyl)piperazin-1-yl)methyl)piperidin-1-yl)phenyl) dihydropyrimidine-2,4(1H,3H)-dione]	
